Measured values from PubChem BioAssay AID248 (DTP/NCI, 2004).
“And” between values parts separate entries of the source, which are not always exact repeats. Identical values can stand only once. Inconclusive results and toxic doses are left out. Rule as the data show it: active = T/C of 150% or more; inactive = T/C below 125%.

System: L1210 leukemia ip in BDF1 mice, survival T/C
Assay: NCI In Vivo Anticancer Drug Screen. Data for tumor model L1210 Leukemia (intraperitoneal) in B6D2F1 (BDF1) mice
Details: higher = longer survival
In short: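 Read-out is survival time, reported as the treated-group measurement over the vehicle-control measurement.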

[1] = endpoint: mean survival time, dose: 50.0 mg/kg/injection, schedule: Q01DX009 (ip), vehicle: Klucel (hydroxypropylcellulose) (HPC)
[2] = endpoint: mean survival time, dose: 100.0 mg/kg/injection, schedule: Q01DX009 (ip), vehicle: Klucel (hydroxypropylcellulose) (HPC)
[3] = endpoint: mean survival time, dose: 100.0 mg/kg/injection, schedule: Q04DX003 (ip), vehicle: Klucel (hydroxypropylcellulose) (HPC)
[4] = endpoint: mean survival time, dose: 200.0 mg/kg/injection, schedule: Q01DX009 (ip), vehicle: Klucel (hydroxypropylcellulose) (HPC)
[5] = endpoint: mean survival time, dose: 200.0 mg/kg/injection, schedule: Q04DX003 (ip), vehicle: Klucel (hydroxypropylcellulose) (HPC)
[6] = endpoint: mean survival time, dose: 400.0 mg/kg/injection, schedule: Q04DX003 (ip), vehicle: Klucel (hydroxypropylcellulose) (HPC)
[7] = endpoint: mean survival time, dose: 100.0 mg/kg/injection, schedule: Q04DX003 (ip), vehicle: saline with Tween-80
[8] = endpoint: mean survival time, dose: 200.0 mg/kg/injection, schedule: Q04DX003 (ip), vehicle: saline with Tween-80
[9] = endpoint: mean survival time, dose: 400.0 mg/kg/injection, schedule: Q04DX003 (ip), vehicle: saline with Tween-80
[10] = endpoint: mean survival time, dose: 400.0 mg/kg/injection, schedule: Q01DX009 (ip), vehicle: Klucel (hydroxypropylcellulose) (HPC)
[11] = endpoint: mean survival time, dose: 50.0 mg/kg/injection, schedule: Q01DX001 (ip), vehicle: saline
[12] = endpoint: mean survival time, dose: 100.0 mg/kg/injection, schedule: Q01DX001 (ip), vehicle: saline
[13] = endpoint: mean survival time, dose: 200.0 mg/kg/injection, schedule: Q01DX001 (ip), vehicle: saline
[14] = endpoint: mean survival time, dose: 400.0 mg/kg/injection, schedule: Q01DX001 (ip), vehicle: saline

Measured: T/C

Cc1ccc(C(C)C)c(OCC2C(=O)C3CCN2CC3)c1 (configuration not stated)
inactive: endpoint: mean survival time, dose: 12.5 mg/kg/injection, schedule: Q04DX003 (ip), vehicle: Klucel (hydroxypropylcellulose) (HPC) 101 % of control | endpoint: mean survival time, dose: 25.0 mg/kg/injection, schedule: Q04DX003 (ip), vehicle: Klucel (hydroxypropylcellulose) (HPC) 101 % of control | endpoint: mean survival time, dose: 50.0 mg/kg/injection, schedule: Q04DX003 (ip), vehicle: Klucel (hydroxypropylcellulose) (HPC) 95 % of control

CO[C@H]1/C=C/O[C@@]2(C)Oc3c(C)c(O)c4c(O)c(c(/C=N/N5C(C)CN(Cc6ccccc6)CC5C)c(O)c4c3C2=O)NC(=O)/C(C)=C\C=C\[C@H](C)[C@H](O)[C@@H](C)[C@@H](O)[C@@H](C)[C@H](OC(C)=O)[C@@H]1C (some centres not stated)
inactive: endpoint: mean survival time, dose: 12.5 mg/kg/injection, schedule: Q02DX Z (oral), vehicle: Klucel (hydroxypropylcellulose) (HPC) 100 % of control | endpoint: mean survival time, dose: 25.0 mg/kg/injection, schedule: Q02DX Z (oral), vehicle: Klucel (hydroxypropylcellulose) (HPC) 95 % of control and 98 % of control | [1] 97 % of control | endpoint: mean survival time, dose: 50.0 mg/kg/injection, schedule: Q02DX Z (oral), vehicle: Klucel (hydroxypropylcellulose) (HPC) 93 % of control and 96 % of control | [2] 101 % of control | endpoint: mean survival time, dose: 100.0 mg/kg/injection, schedule: Q02DX Z (oral), vehicle: Klucel (hydroxypropylcellulose) (HPC) 100 % of control and 106 % of control | [3] 97 % of control | [4] 100 % of control | endpoint: mean survival time, dose: 200.0 mg/kg/injection, schedule: Q02DX Z (oral), vehicle: Klucel (hydroxypropylcellulose) (HPC) 96 % of control and 98 % of control | [5] 95 % of control | endpoint: mean survival time, dose: 400.0 mg/kg/injection, schedule: Q02DX Z (oral), vehicle: Klucel (hydroxypropylcellulose) (HPC) 107 % of control and 91 % of control | [6] 103 % of control | endpoint: mean survival time, dose: 800.0 mg/kg/injection, schedule: Q02DX Z (oral), vehicle: Klucel (hydroxypropylcellulose) (HPC) 101 % of control and 104 % of control | endpoint: mean survival time, dose: 1600.0 mg/kg/injection, schedule: Q02DX Z (oral), vehicle: Klucel (hydroxypropylcellulose) (HPC) 95 % of control and 89 % of control | endpoint: median survival time, dose: 6.25 mg/kg/injection, schedule: Q01DX005 (ip), vehicle: other 106 % of control | endpoint: median survival time, dose: 12.5 mg/kg/injection, schedule: Q01DX005 (ip), vehicle: Klucel (hydroxypropylcellulose) (HPC) 110 % of control | endpoint: median survival time, dose: 12.5 mg/kg/injection, schedule: Q01DX005 (ip), vehicle: other 107 % of control | endpoint: median survival time, dose: 12.5 mg/kg/injection, schedule: Q01DX005 (oral), vehicle: other 117 % of control | endpoint: median survival time, dose: 25.0 mg/kg/injection, schedule: Q01DX005 (ip), vehicle: Klucel (hydroxypropylcellulose) (HPC) 101 % of control | endpoint: median survival time, dose: 25.0 mg/kg/injection, schedule: Q01DX005 (ip), vehicle: other 111 % of control | endpoint: median survival time, dose: 25.0 mg/kg/injection, schedule: Q01DX005 (oral), vehicle: Klucel (hydroxypropylcellulose) (HPC) 117 % of control | endpoint: median survival time, dose: 25.0 mg/kg/injection, schedule: Q01DX005 (oral), vehicle: other 114 % of control and 119 % of control | endpoint: median survival time, dose: 25.0 mg/kg/injection, schedule: Q02DX005 (oral), vehicle: other 104 % of control | endpoint: median survival time, dose: 50.0 mg/kg/injection, schedule: Q01DX005 (ip), vehicle: Klucel (hydroxypropylcellulose) (HPC) 97 % of control | endpoint: median survival time, dose: 50.0 mg/kg/injection, schedule: Q01DX005 (ip), vehicle: other 117 % of control | endpoint: median survival time, dose: 50.0 mg/kg/injection, schedule: Q01DX005 (oral), vehicle: Klucel (hydroxypropylcellulose) (HPC) 114 % of control | endpoint: median survival time, dose: 50.0 mg/kg/injection, schedule: Q01DX005 (oral), vehicle: other 93 % of control and 111 % of control | endpoint: median survival time, dose: 50.0 mg/kg/injection, schedule: Q02DX005 (oral), vehicle: other 104 % of control | endpoint: median survival time, dose: 100.0 mg/kg/injection, schedule: Q01DX005 (ip), vehicle: Klucel (hydroxypropylcellulose) (HPC) 106 % of control | endpoint: median survival time, dose: 100.0 mg/kg/injection, schedule: Q01DX005 (ip), vehicle: other 103 % of control | endpoint: median survival time, dose: 100.0 mg/kg/injection, schedule: Q01DX005 (oral), vehicle: Klucel (hydroxypropylcellulose) (HPC) 114 % of control | endpoint: median survival time, dose: 100.0 mg/kg/injection, schedule: Q01DX005 (oral), vehicle: other 93 % of control and 107 % of control | endpoint: median survival time, dose: 100.0 mg/kg/injection, schedule: Q02DX005 (oral), vehicle: other 104 % of control | endpoint: median survival time, dose: 200.0 mg/kg/injection, schedule: Q01DX005 (ip), vehicle: Klucel (hydroxypropylcellulose) (HPC) 92 % of control | endpoint: median survival time, dose: 200.0 mg/kg/injection, schedule: Q01DX005 (oral), vehicle: Klucel (hydroxypropylcellulose) (HPC) 94 % of control and 117 % of control | endpoint: median survival time, dose: 200.0 mg/kg/injection, schedule: Q01DX005 (oral), vehicle: other 98 % of control and 111 % of control | endpoint: median survival time, dose: 200.0 mg/kg/injection, schedule: Q02DX005 (oral), vehicle: Klucel (hydroxypropylcellulose) (HPC) 100 % of control | endpoint: median survival time, dose: 200.0 mg/kg/injection, schedule: Q02DX005 (oral), vehicle: other 119 % of control | endpoint: median survival time, dose: 400.0 mg/kg/injection, schedule: Q01DX005 (ip), vehicle: Klucel (hydroxypropylcellulose) (HPC) 102 % of control | endpoint: median survival time, dose: 400.0 mg/kg/injection, schedule: Q01DX005 (oral), vehicle: Klucel (hydroxypropylcellulose) (HPC) 104 % of control and 114 % of control | endpoint: median survival time, dose: 400.0 mg/kg/injection, schedule: Q02DX005 (oral), vehicle: Klucel (hydroxypropylcellulose) (HPC) 101 % of control | endpoint: median survival time, dose: 800.0 mg/kg/injection, schedule: Q01DX005 (ip), vehicle: Klucel (hydroxypropylcellulose) (HPC) 104 % of control | endpoint: median survival time, dose: 800.0 mg/kg/injection, schedule: Q01DX005 (oral), vehicle: Klucel (hydroxypropylcellulose) (HPC) 101 % of control | endpoint: median survival time, dose: 800.0 mg/kg/injection, schedule: Q02DX005 (oral), vehicle: Klucel (hydroxypropylcellulose) (HPC) 104 % of control | endpoint: median survival time, dose: 1600.0 mg/kg/injection, schedule: Q01DX005 (oral), vehicle: Klucel (hydroxypropylcellulose) (HPC) 104 % of control and 114 % of control | endpoint: median survival time, dose: 1600.0 mg/kg/injection, schedule: Q02DX005 (oral), vehicle: Klucel (hydroxypropylcellulose) (HPC) 119 % of control

CNC(=O)c1ccccc1N
inactive: [7] 100 % of control | [8] 95 % of control | [9] 98 % of control

CCOC(=O)C1C(O)=C(P(=O)(C2=C(O)C(C(=O)OCC)C(c3ccc(OC(C)=O)cc3)C(C(=O)O)C2=O)N(CCCl)CCCl)C(=O)C(C(=O)O)C1c1ccc(OC(C)=O)cc1 (configuration not stated)
inactive: [2] 97 % of control | [3] 98 % of control | [4] 102 % of control | [5] 98 % of control | [10] 102 % of control | [6] 108 % of control

CCN(CC)C(=O)Cn1cc(F)c(=O)[nH]c1=O
inactive: [7] 98 % of control | endpoint: mean survival time, dose: 100.0 mg/kg/injection, schedule: Q04DX003 (ip), vehicle: saline 104 % of control | [8] 101 % of control | endpoint: mean survival time, dose: 200.0 mg/kg/injection, schedule: Q04DX003 (ip), vehicle: saline 104 % of control | [9] 106 % of control | endpoint: mean survival time, dose: 400.0 mg/kg/injection, schedule: Q04DX003 (ip), vehicle: saline 98 % of control

c1ccc(CNCCCNCc2ccccn2)nc1
inactive: endpoint: mean survival time, dose: 50.0 mg/kg/injection, schedule: Q01DX009 (ip), vehicle: saline with Tween-80 93 % of control | endpoint: mean survival time, dose: 100.0 mg/kg/injection, schedule: Q01DX009 (ip), vehicle: saline with Tween-80 98 % of control

CC(=O)Nc1ccc(S(=O)(=O)SC(Cl)(Cl)Cl)cc1
inactive: endpoint: mean survival time, dose: 100.0 mg/kg/injection, schedule: Q01DX009 (ip), vehicle: gum acacia 99 % of control | endpoint: mean survival time, dose: 200.0 mg/kg/injection, schedule: Q01DX009 (ip), vehicle: gum acacia 94 % of control | endpoint: mean survival time, dose: 400.0 mg/kg/injection, schedule: Q01DX009 (ip), vehicle: gum acacia 99 % of control

Cc1cc(=O)oc2cc(OC(=O)Nc3ccc(F)c([N+](=O)[O-])c3)ccc12
inactive: [2] 101 % of control | [4] 107 % of control

O=C1NC(=O)C(c2ccc(C(=O)O)cc2)N1 (configuration not stated)
inactive: [11] 107 % of control | [12] 105 % of control | [13] 100 % of control | [14] 96 % of control

COc1cc(/C=C/C(N)=O)cc(OC)c1OC
inactive: endpoint: mean survival time, dose: 25.0 mg/kg/injection, schedule: Q01DX009 (ip), vehicle: Klucel (hydroxypropylcellulose) (HPC) 104 % of control | [1] 114 % of control | [2] 101 % of control | [4] 104 % of control | [10] 102 % of control

CCOC(=O)/C(=C/c1ccc(OC)cc1)P(=O)(OCC)OCC
inactive: [11] 91 % of control | [12] 91 % of control | [13] 103 % of control | [14] 95 % of control

CC1(C)OC(=O)C(C#N)C1c1ccccc1 (configuration not stated)
inactive: [12] 93 % of control | [13] 91 % of control | [14] 96 % of control
